From EPA's ToxValDB 9.5 (doi:10.2903/j.efsa.2018.5467) come the findings set out here.

≈ marks a conversion by molar mass, not a printed value. Where only a bound is given, the exact number is not on record here.

For one data set, the system named is Colinus virginianus. To be noted: for LD50: acute, oral, mortality.
For data set [1], the system named is Typhlodromus pyri. To be noted: chronic/long-term; reproduction.
In the next data set the test system is Daphnia magna. To be noted: chronic/long-term; duration: 21 days; other.
Another data set deals with Apis mellifera. To be noted: acute, mortality.
The test system of a further data set is Tagia sp. The following applies: chronic/long-term; duration: 56 days; reproduction.
For another data set, the system named is Bibionidae. To be noted: chronic/long-term; duration: 28 days; other.
In data set [2] the test system is Typhlodromus pyri. In words: LR50; higher = less toxic. To be noted: acute; mortality.

On to `C#CCOC(=O)[C@@H](C)Oc1ccc(Oc2ncc(Cl)cc2F)cc1` [Clodinafop-propargyl], for which the LD50 in the data set on Colinus virginianus (duration: 5 days, diet) was more than 1040 mg/kg-day; with Colinus virginianus, 1460 mg/kg-day; in the data set with Rattus norvegicus (acute, oral, mortality), more than 1390 mg/kg-day; with Apis mellifera (dermal), more than 271 µg/piece; in the data set with Apis mellifera (oral, unspecified), more than 104 µg/piece. The NOEC in the data set on Colinus virginianus (reproduction developmental) worked out at 48.9 mg/kg-day; in the data set with Lepomis macrochirus (chronic/long-term, duration: 33 days, other), 0.024 mg/L; in the data set with Typhlodromus pyri [1] it was 90 g/ha; in the data set on Daphnia magna, 0.23 mg/L; with Tagia sp., 5 mg/kg; in the data set with Bibionidae, 1.2 mg/L. For the same compound, the median lethal concentration (LC50) in the data set on Lepomis macrochirus (acute, duration: 96 hours, mortality) worked out at 0.21 µg/mL (≈ 0.6 µM). Also, the NOAEL stood at 0.03 mg/kg-day in the data set with Rattus norvegicus (chronic, duration: 2 years, clinical chemistry); 5 mg/kg-day in the data set on Rattus norvegicus (developmental, development); 3.4 mg/kg-day with Rattus norvegicus (reproduction developmental, body weight). In addition, the LR50 with Typhlodromus pyri [2] is more than 90 g/ha.

A word on the LC50: it is the concentration lethal to half of the exposed cells or organisms. In general, NOAEL refers to the highest dose or exposure tested at which no adverse effect was seen.
